# In US11491122B2, “Use of a combination of Adelmidrol and hyaluronic acid in the treatment of pain caused by osteoarthritis and epithelial dysfunctions” (Epitech Group S.p.A., priority 2014, dated 2022):
# Legend:
# HaCaT cells = test: Endogenous levels of AEA, 2-AG, PEA and OEA in HaCaT cells stimulated with Adelmidrol (LC-APCI-MS); assay type: cell-based, human; conditions: Adelmidrol 10 μM, 24 hours
# Method: Cultured human keratinocytes, HaCaT, were grown in DMEM (Dulbecco's Modified Eagle Medium) supplemented with glutamine (2 mM), penicillin (400 U/ml), streptomycin ([…]), 10% FBS (Fetal Bovine Serum), in the presence of 5% CO2 and at 37° C. Thereafter, cells plated in 6-well multi-wells (9×10^5/well), once 70% confluence had been reached, were stimulated with Adelmidrol, 10 μM, or carrier (Ctrl, 0.05% methanol) for 24 hours in the presence of 5% CO2 at 37° C. After 24 hours, the cells and the surnatants were homogenized in 5 vol. of a chloroform/methanol TRIS-HCl 50 mM pH 7.4 (2:1:1) solution containing 10 pmol of [^2H]8anandamide (AEA) and 50 pmol of [^2H]52-arachidonoylglycerol (2-AG), [^2H]4palmitoylethanolamide (PEA) and [^2H]2oleoylethanolamide (OEA) (Bisogno et al., 1997). The organic-lipidic phase obtained from the four extractions with chloroform was subjected to purification by silica column chromatography, eluted by increasing concentrations of methanol in chloroform. The chloroform/methanol 90:10 fraction containing AEA, 2-AG, PEA and OEA was analyzed by liquid chromatography coupled to mass spectrometry using chemical ionization at atmospheric pressure (LC-APCI-MS) (Marsicano et al., 2002). The equipment used includes a Shimadzu HPLC (LC-10ADVP) coupled with a Shimadzu spectrometer (LCMS-2010) via a Shimadzu APCI interface. The ionization source temperature is 400° C. and a Phenomenex reverse phase HPLC column (C-18, 5 microns, 150×4.6 mm) is used. The mobile phase, consisting of a mixture of methanol/water/acetic acid (85/15/0.1%), passes through the column at a rate of 1 ml/min. The mass spectrum determination is carried out according to the selected ion monitoring (SIM) [Di Marzo et al. Nature 2001; 410:822-825]. Selected ions correspond to mass/charge values (m/z) of 356 and 348 (molecular ions of deuterated and non-deuterated AEA), 384.35 and 379.35 (molecular ions of deuterated and non-deuterated 2-AG), 304 and 300 (molecular ions of deuterated and non-deuterated PEA), 328 and 326 (molecular ions of deuterated and non-deuterated OEA). The quantity expressed as pmol/mg of lipid extract were compared using ANOVA followed by the Student-Newman-Keuls test.
# FAAH = molecular target: T1, FAAH (Rattus norvegicus, UniProt P97612); test: Maximum reduction of the activity of the PEA-degrading enzyme FAAH, rat brain membrane homogenates; assay type: biochemical
# T1 construct: was also measured using homogenates rat brain membranes; from tissue; host or cells: rat brain membrane homogenates
# T1 sequence (P97612 1-579): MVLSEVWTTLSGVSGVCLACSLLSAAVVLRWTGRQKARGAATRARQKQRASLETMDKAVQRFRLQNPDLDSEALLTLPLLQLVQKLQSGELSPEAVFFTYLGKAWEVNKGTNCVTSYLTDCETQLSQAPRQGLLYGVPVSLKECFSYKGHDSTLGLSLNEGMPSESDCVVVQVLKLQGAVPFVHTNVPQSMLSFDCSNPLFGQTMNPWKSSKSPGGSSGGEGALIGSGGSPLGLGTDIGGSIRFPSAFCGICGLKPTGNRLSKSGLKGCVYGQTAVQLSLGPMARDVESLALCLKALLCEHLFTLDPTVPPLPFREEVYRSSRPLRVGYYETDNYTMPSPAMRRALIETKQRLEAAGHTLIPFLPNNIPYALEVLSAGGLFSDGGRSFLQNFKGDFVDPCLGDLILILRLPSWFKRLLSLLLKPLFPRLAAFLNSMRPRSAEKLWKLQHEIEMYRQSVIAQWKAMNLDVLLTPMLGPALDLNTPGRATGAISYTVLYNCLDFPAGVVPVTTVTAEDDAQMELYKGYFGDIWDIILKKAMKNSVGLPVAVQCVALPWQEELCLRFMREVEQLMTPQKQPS
# Method: (§1) The maximum reduction of the activity of the palmitoylethanolamide-degrading enzymes (NAAA and FAAH) was also measured using homogenates rat brain membranes [Ueda N et al Chem Phys Lipids. 2000 November; 108(1-2):107-21; Tsuboi K. Et al J Biol Chem. 2005 March 25; 280(12):11082-92].
# NAAA = molecular target: T2, NAAA (Rattus norvegicus, UniProt Q5KTC7); test: Maximum reduction of the activity of the PEA-degrading enzyme NAAA, rat brain membrane homogenates; assay type: biochemical
# T2 construct: was also measured using homogenates rat brain membranes; from tissue; host or cells: rat brain membrane homogenates
# T2 sequence (Q5KTC7 131-362 limits assumed): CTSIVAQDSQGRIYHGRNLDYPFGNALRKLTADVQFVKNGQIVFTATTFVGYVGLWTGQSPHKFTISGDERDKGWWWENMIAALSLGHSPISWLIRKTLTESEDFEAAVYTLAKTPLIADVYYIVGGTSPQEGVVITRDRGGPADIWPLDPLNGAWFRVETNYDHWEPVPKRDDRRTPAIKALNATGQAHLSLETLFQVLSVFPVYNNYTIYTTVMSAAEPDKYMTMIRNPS
# T2 sequence (Q5KTC7 34-130 limits assumed): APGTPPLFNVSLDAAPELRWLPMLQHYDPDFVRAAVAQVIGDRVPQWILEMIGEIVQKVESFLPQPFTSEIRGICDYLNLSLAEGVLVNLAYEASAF
# Method: as §1
# [1] = system: knee osteoarthritis induced by monosodium iodoacetate (MIA); test: Osteoarthritis induced by sodium monoiodoacetate: knee edema by digital caliper; assay type: in vivo, rat; conditions: intra-articular Adelmidrol 1.5, 15 and 150 μg/injection, days 1, 8, 15; dose-dependent, evident at all analyzed times
# Method: (§2) The experiments were conducted using adult male rats of the Wistar strain (weight 200-250 grams) supplied by Harlan Italy, put in enclosures for a week in standard dietary and environmental conditions (temperature 21±1° C., humidity 60±10%, light 12 hours a day and water and food ad libitum) before being used in the experiments. […] MIA acts locally by inhibiting glycolysis, destroying the metabolism of chondrocytes and producing cartilage degeneration. At the time of the induction of osteoarthritis, MIA was dissolved in sterile saline. Before carrying out the intra-articular administration, the rats were anesthetized with pentobarbital sodium dissolved in saline at the dose of 60 mg/kg, in an administration volume of 0.2 ml/hg intraperitoneally (i.p.). […]
# In order to evaluate the formation of the edema in the right knee of the animals after MIA injection, a digital manual slide caliper (measuring capacity 0-150 mm; resolution: 0.01 mm; ROHS Compliant Electronic Digital Caliper—2 Biological Instruments SNC, Italy) was used. […] The edema was calculated as the difference between the […] of the right knee and left knee. […]
# The various parameters are measured at different times in relation to the parameter itself (e.g. inflammatory parameters are evaluated only in the first week since the MIA, pain is always evaluated before and 60 min. after the administration of Adelmidrol).
# TNF-α = test: Osteoarthritis induced by sodium monoiodoacetate: TNF-α in the synovial fluid (ELISA); assay type: in vivo, rat; conditions: intra-articular Adelmidrol, MIA osteoarthritic rats
# Method: as §2, with “(i.p.). The animals that received the MIA injection in their right knee represent the osteoarthritic (OA) group.” for “(i.p.).”
# The determination of TNF-α levels in the synovial fluid was made using an ELISA (Enzyme Linked Immuno-Sorbent-Assay) immunoenzymatic assay using a commercial kit from Biosource International Inc. The method uses a procedure in which the antigen is trapped between two layers of antibodies and for this reason it is called an ELISA sandwich. […] Following the enzymatic reaction, a product is generated whose staining intensity is measured spectrophotometrically and is directly proportional to the concentration of TNF-α in the samples. […]
# [2] = system: patients with Bladder Pain Syndrome (BPS); test: Intravesical instillation in patients with Painful Bladder Syndrome (BPS); assay type: in vivo, human; conditions: 7 female BPS patients
# Method: A sterile solution containing 2% Adelmidrol and 0.1% hyaluronic acid sodium salt was instilled into the bladder of no. 7 female patients through catheter after the complete emptying of the bladder itself. […] Most of the times, the patients had comorbidity with other pelvic diseases (vulvar vestibulitis 4/7; IBS (irritable bowel syndrome) 2/7; Fibromyalgia Syndrome 1/7, Recurrent Urinary Tract Infections (RUTI) 3/7).
# Treatments were carried out as attack therapy (one intravesical instillation per week for 8 weeks), followed by maintenance therapy (one instillation per month for 6 months).
# Using a dedicated diary, the frequency of urination (measured as the number of urinations in 12 hours), both during the day and at night, and the discomfort with bladder full were controlled, analyzing the pain, the feeling of weight and the burning in the pelvic area (all three parameters were measured by means of numerical scale VAS, before treatment, at the end of the attack therapy and at the end of the maintenance therapy).
# [3] = experimental animals, oral administration; cited from earlier work
# [4] = cited from earlier work
smiles,measurement,setting,value
"O=C(CCCCCCCC(=O)NCCO)NCCO [Adelmidrol, N,N′-Bis(2-hydroxyethyl)nonandiamide]",levels of 2-AG in HaCaT cells,HaCaT cells; vs Ctrl,No significant variation
same,levels of AEA in HaCaT cells,HaCaT cells; vs Ctrl,No significant variation
same,levels of OEA in HaCaT cells,HaCaT cells; vs Ctrl,No significant variation
same,levels of PEA in HaCaT cells,"HaCaT cells; basal values 31.6±5.6, n=6, P<0.0001",66.4±9.6 pmol/mg of lipid extract
same,inhibition of the activity of FAAH (in words),FAAH,does not inhibit
same,inhibition at 50 µM,"FAAH; Treatment with Adelmidrol 50 μM, Control 21.22 ± 3.18%, read-out: Maximum inhibition of the enzymatic activity (expressed as IC50), Enzyme FAAH",20.1 ± 4.12%
same,inhibition of the activity of NAAA (in words),NAAA,does not inhibit
same,inhibition at 50 µM,"NAAA; Treatment with Adelmidrol 50 μM, Control 11.43 ± 1.72%, read-out: Maximum inhibition of the enzymatic activity (expressed as IC50), Enzyme NAAA",11.3 ± 2.26%
same,anti-inflammatory effect (knee edema),[1],strong anti-inflammatory effect
same,levels of TNF-α in the synovial fluid,TNF-α,reduction
same,"all the parameters evaluated (urination frequency, pain, weight, burning) after treatment",[2],marked improvement
same,LD50,[3],2-3 g/kg body weight
same,solubility in lipids,[4],good solubility in lipids
same,solubility in water,[4],high solubility in water
